Laboratory results taken from patent US11839210B1, “Plant growth promoter with strigolactones regulation activities” (King Abdullah University of Science and Technology, priority 2017, dated 2023).

Experiments:
Striga hermonthica seeds = test: Striga hermonthica seed germination bioassay with rice root exudates; type: in vivo
Experimental: For the analysis of SLs, one week-old seedlings were further transferred into 50 ml falcon tube (three seedlings per tube) containing Hoagland nutrient solution with K2HPO4·2H2O (+Pi) and grown in the growth cabinet for one week. The rice seedlings were then subjected to phosphate deficiency for another one week period. On the day of root exudates collection, rice seedlings were first treated with 5 μM zaxinone for 6 h and then root exudates and root tissues were collected from each tube for LC-MS/MS analysis and Striga bioassays.
The Striga seed germination bioassay was carried out in the following manner After 10 days of pre-conditioning (30° C. under moisture for 10 days), Striga seeds were supplied with 50 μl of SL collected from root exudates of zaxinone treated and non-treated wild-types and zas mutants. After SLs application, Striga seeds were incubated at 30° C. in the dark for two days. Germinated (seeds with radicle) and non-germinated seeds were counted under a binocular to calculate germination rates (%).

[1] = test system: wild-type and zas mutant rice plants; test: Rescue of zas mutant phenotype, soil-grown rice in rhizotron root analysis system; type: in vivo, Oryza sativa Nipponbare; details: 10 μM zaxinone
Experimental: Three days-old seedlings were grown in soil in Hoagland nutrient solution containing K2HPO4·2H2O (+Pi) with 10 μM zaxinone treatment. The solution was changed every other day for 2 weeks, adding the chemical at each renewal. Plants grown without zaxinone served as the controls and phenotypic data were recorded. To prevent zaxinone degradation from light exposure, 1 μl/ml emulsifier was added into the Hoagland nutrient solution.

[2] = test system: SL biosynthesis genes (D27, CCD7, CCD8 and CO); test: qRT-PCR of transcript levels of SL biosynthesis genes (all four together) in rice roots; type: in vivo; details: for expression levels of D27, CCD7, CCD8 and CO: −Pi
Experimental: (§1) For the analysis of SL transcript levels in the zas mutant, one week-old seedlings were grown hydroponically in half-strength modified Hoagland nutrient solution with K2HPO4·2H2O (+Pi) and without K2HPO4·2H2O (−Pi) for 7 days. Seedlings were further treated with zaxinone for 6 h and tissues were collected.
(§2) Total RNA was extracted from the roots and shoots using a Qiagen Plant RNeasy Kit according to the manufacturer's instruction. cDNA was synthesized from 1 μg of total RNA using iScript cDNA Synthesis Kit (BIO-RAD Laboratories, Inc, 2000 Alfred Nobel Drive, Hercules, CA, Cat. No #170-8890) according to instructions in the user manual. For mycorrhizal samples, single-strand cDNA was synthesized from 1 μg of total RNA using Super-Script II (Invitrogen) according to instructions in the user manual. Primers used for real-time quantitative RT-PCR (qRT-PCR) analysis are listed below in Table 3. qRT-PCR was performed using SYBR Green Master Mix (Applied Biosystems; www.lifetechnologies.com) in a StepOnePlus (Life Technologies, Carlsbad, CA, USA). For mycorrhizal samples, qRT-PCR was performed using a Rotor-Gene Q 5plex HRM Platform (Qiagen). The 2-ΔCt method was used to calculate the relative gene expression levels and rice Ubiquitin (OsUBQ or OsRubQ1) gene was used as the internal control to normalize target gene expression.
Two week-old seedlings were grown for another one week in −Pi solution and then transferred to new vials containing fresh −Pi solution with and without the indicated concentrations (2.5 μM, 5 μM, 10 μM and 20 μM) of zaxinone for 6 h and samples were collected. SL biosynthetic genes expression for D27 (FIG. 19A), CCD7 […], CCD8 (FIG. 19C), and CO (Carlactone oxidase-FIG. 19D) in WT and zas mutants. […] The expression levels were detected by quantitative RT-PCR. Ubiquitin was used as a reference gene and the expression levels in the WT-mock were normalized to 1. Bars represent mean±SD (n=3). Different letters above each bar denote significant difference following a One-way ANOVA test (P<0.05).
Transcript levels of SL biosynthesis genes, D27 (FIG. 24C), CCD7/D17 (FIG. 24D), CCD8/D10 (FIG. 24E) and OsCO (Carlactone oxidase—FIG. 24F) in root tissues were collected for SL quantification. The expression levels were detected by qRT-PCR. Ubiquitin was used as a reference gene and the expression levels in the WT-mock were normalized to 1. Two week-old seedlings were grown for another one week in −Pi solution and then transferred to new vials containing fresh −Pi solution with and without 5 μM of zaxinone and GR24 for 6 h and samples were collected. Bars represent mean±SD (n=3). Different letters above each bar denote significant difference following a One-way ANOVA test (P<0.05).

D27 = test: qRT-PCR of D27 gene expression in rice roots after zaxinone treatment; type: in vivo, rice (Oryza sativa Nipponbare); details: −Pi, 6 h
Experimental: as §1, §2
14-day-old rice seedlings were transferred to new hydroponic pots containing fresh media with or without chemicals for 6 hours. SL biosynthetic (D27, D10, D17 and MAX1-Os900) gene expression were determined under −Pi conditions (phosphate deficient) with zaxinone (2.5 and 5 μM) treatment of both Nipponbare wild-type (WT) rice roots and zas mutant rice roots. The expression levels (1301) were detected by quantitative RT-PCR. Ubiquitin was used as a reference gene. Mock treatment (control) treatment consisted of 0.1% acetone. Bars (1302) show comparisons between the treatments and represent mean±SD (n=3). Decrease in SLs levels in the plants treated with zaxinone ranged from approximately 40% to 70%.

CC(=O)/C=C/C=C(C)/C=C/C1=C(C)C[C@@H](O)CC1(C)C [zaxinone, 3-OH-β-apo-13-carotenone]
decrease in germination rate of S. hermonthica seeds vs mock-treated culture medium (Striga hermonthica seeds; culture medium from zaxinone treated WT rice): approximately 50%
decreases in germination rates of S. hermonthica seeds vs mock (Striga hermonthica seeds; culture medium from zaxinone treated WT rice and zas mutant rice (both together)): 40-50%
decrease in germination rate of S. hermonthica seeds vs mock-treated culture medium (Striga hermonthica seeds; culture medium from zaxinone treated zas mutant rice): approximately 40%
germination of Striga seeds exposed to root exudates (Striga hermonthica seeds; exudates from zaxinone treated zas mutant (zas/Zax), phosphate-starved, 5 μM): decreased to levels near the germination rates for the wild-type control
germinating activity of root exudates on Striga hermonthica seeds (Striga hermonthica seeds; zas exudates, normal phosphorus (+Pi), 5 μM zaxinone, exudates diluted 9 times): decreased germinating activity of zas exudates (zas/Zax) to a level below that of the wild-type sample
lowering of Striga seed germinating activity of root exudates (Striga hermonthica seeds; zas mutant exudates, phosphate-starved, 5 μM zaxinone, 6 h): 40%
shoots and roots vs untreated control seedlings (visual) ([1]; wild-type seedlings): some improvement
shoots and roots vs untreated control seedlings (visual) ([1]; zas mutant seedlings): substantial improvement
increase of shoot length over untreated seedlings ([1]; zas mutant): about 10 cm
shoot biomass vs untreated ([1]; zas mutant): doubled
root surface area ([1]; zas mutant, untreated 15-20 cm^2): 25-50 cm^2
SL transcript levels in roots ([2]; Shiokari wild-type and d3 seedlings, phosphate-starved, 5 μM, 6 h): decreased
transcript levels of D27, CCD7, CCD8 and CO ([2]; WT and zas root tissues, normal phosphorus (+Pi), zaxinone 6 h): nor was there a pronounced effect
expression levels of D27, CCD7, CCD8 and CO ([2]; wild-type roots, 2.5-20 μM zaxinone, 6 h): decreased the expression levels of the wild-type to levels below the WT/Mock control level
transcript levels of D27, CCD7, CCD8 and CO ([2]; zas mutant and wild-type seedlings, phosphate starvation, 5 μM zaxinone): decreased the transcript levels
expression levels of D27, CCD7, CCD8 and CO ([2]; zas mutant roots, increased concentrations (5, 10, 20 μM) vs 2.5 μM, 6 h): Only slight decreases
expression levels of D27, CCD7, CCD8 and CO ([2]; zas mutant roots, lowest level of zaxinone (2.5 μM), 6 h): reduced the expression levels to near the WT/Mock level
relative expression of transcript levels of D27, CCD7, CCD8 and CO ([2]; zaxinone treated zas mutants (zas/Zax), phosphate starvation, 5 μM): at or near levels for the wild-type controls
decrease of D27 relative expression vs mock (D27; WT rice roots, 2.5 μM zaxinone): approximately 50%
D27 relative expression (D27; WT rice roots, 2.5 μM zaxinone, WT mock approx. 1.0): approximately 0.5
decrease of D27 relative expression vs mock (D27; WT rice roots, 5.0 μM zaxinone): ~75%
D27 relative expression (D27; WT rice roots, 5.0 μM zaxinone, WT mock approx. 1.0): approximately 0.25
decrease of D27 relative expression vs mock (D27; zas mutant rice roots, 2.5 μM zaxinone): approximately 63%
D27 relative expression (D27; zas mutant rice roots, 2.5 μM zaxinone, zas mock approx. 3.25): approximately 1.2
decrease of D27 relative expression vs mock (D27; zas mutant rice roots, 5.0 μM zaxinone): ~77%
D27 relative expression (D27; zas mutant rice roots, 5.0 μM zaxinone, zas mock approx. 3.25): approximately 0.75
